# Key:
# DU145 cells = assay: TGF-β/Smad/RNA polymerase II signaling, western blot, fractionation, immunoprecipitation; format: cell-based, human; conditions: 10 μM
# Experimental: Whole-cell lysates were subjected to western blotting with the indicated antibodies. […] The proteins in the cytosol and nucleus were detected by western blotting analysis, and the proteins expression in the nucleus were quantified. […] The results are shown as the mean±SEM from at least three independent experiments (*p<0.05, **p<0.01, and ***p<0.001 vs. control group; #p<0.05, ##p<0.01, and ###p<0.001 vs. TGF-β1 treatment group; § p<0.05, §§ p<0.01 vs. indicated group).
# The cells were incubated in lysis buffer for 10 min at 4° C., scraped off, incubated on ice for an additional 10 min and then centrifuged at 17,000 g for 30 min at 4° C. Protein samples were electrophoresed on SDS-PAGE gels, transferred to PVDF membranes and blocked with 5% fat-free milk in PBS for 30 min at room temperature. Immunoblotting was performed overnight with primary antibodies in PBS at 4° C., followed by incubation with HRP-conjugated secondary antibodies for 1 h at room temperature. Bound antibodies will be measured using an ECL reagent and exposed to a photographic film. In the immunoprecipitation assay, cell lysates were immunoprecipitated with 1 μg of antibody and A/G agarose beads overnight at 4° C. After washing the precipitated beads three times with 1 mL ice-cold cell lysis buffer, bound immune complexes were separated by 10% SDS-PAGE and analyzed with immunoblotting.
# A549 cells = assay: TGF-β1-induced oxidative stress (MDA, Nox4); format: cell-based, human; conditions: compounds 2 μM, TGF-β1 10 ng/ml 24 h
# Experimental: A549 cells were incubated with compounds k, b, a (2 μM), senexin A (5 μM), or pirfenidone (1 mM) for 1 h, followed by treatment with 10 ng/ml TGF-β1 for a further 24 h. Malondialdehyde (MDA) (FIG. 10A) and Nox4 (FIG. 10B) levels were detected. ***p<0.001 compared to the control group; #p<0.05, ##p<0.01, and ###p<0.001 compared to the TGF-β1-treated group.
# An end product of lipid peroxidation, malondialdehyde (MDA), was measured by spectrophotometry at a wavelength of 532 nm using malondialdehyde bis(dimethyl acetal) as the standard as per the assay protocol (Cell Biolabs, USA).
smiles,measurement,setting,value
"CNC(=O)c1cc(Oc2ccc(NS(=O)(=O)c3ccc4c(c3)C(=C(C)C)C(=O)N4)c(F)c2)ccn1 [Compound k, 4-(3-Fluoro-4-((2-oxo-3-(propan-2-ylidene)indoline)-5-sulfonamido)phenoxy)-N-methylpicolinamide]","binding of CDK8 to RNA polymerase II (Ser2/5), Smad3 and Pin1 (immunoprecipitation)",DU145 cells; TGF-β1 10 ng/mL,inhibited
same,phosphorylation of Smad3 and RNA polymerase II in nuclear fraction,DU145 cells; TGF-β1 10 ng/mL 1 h,markedly suppressed
same,"expression of mesenchymal markers (N-cadherin, Snail)",DU145 cells; TGF-β1 10 ng/mL 24 h,significantly downregulated
same,TGF-β1-caused oxidative stress (MDA and Nox4 levels),A549 cells,markedly reduced

# Reference: patent US20250109120A1, “INDOLINE DERIVATIVES FOR TREATMENT AND/OR PREVENTION OF TUMOR OR CELL PROLIFERATIVE AND FIBROSIS DISEASES” (NATIONAL TAIWAN UNIVERSITY, priority 2023, published 2025)
